Laboratory results from ChEMBL document CHEMBL4130505, “4-Quinolone hybrids and their antibacterial activities” (Eur J Med Chem, 2017).
Values after ≈ are worked out from the molar mass of the structure shown. Blank lines part the entries; values can stand above or below the molecule they belong to.

Assays:
Klebsiella pneumoniae = test: Antibacterial activity against Klebsiella pneumoniae by microdilution method; format: functional
Escherichia coli [1] = test: Antibacterial activity against Escherichia coli NCTC 10419 infected in CF mouse assessed as protection against bacterial infection administered orally at 1 and 4 hrs post infection measured after 1 week; format: functional, organism-based
Escherichia coli [2] = test: microbe, parasite or virus in culture; conditions: NCTC 10419
Description: Antibacterial activity against Escherichia coli NCTC 10419 after 18 to 20 hrs by agar dilution method

Escherichia coli [3] = test: Potency index, ratio of ciprofloxacin MIC to compound MIC for Escherichia coli; format: functional
Escherichia coli [4] = test: Antibacterial activity against Escherichia coli; format: functional
[5] = Solubility of the compound in water; format: physicochemical
Escherichia coli [6] = test: Potency index, ratio of ciprofloxacin MIC to compound MIC for Escherichia coli NCTC 10419; format: functional
Escherichia coli [7] = test: Potency index, ratio of ciprofloxacin EC50 to compound EC50 for antibacterial activity against Escherichia coli NCTC 10419 infected in CF mouse; format: functional

Structure (SMILES): CC1=NOc2c(N3CCc4ccccc4C3)c(F)cc3c(=O)c(C(=O)O)cn1c23
MIC (Klebsiella pneumoniae): 8 µg/mL (≈ 20.3 µM)

Structure (SMILES): CC1=NOc2c(N3CCN(C)CC3)c(F)cc3c(=O)c(C(=O)O)cn1c23
MIC (Klebsiella pneumoniae): 8 µg/mL (≈ 22.2 µM)

Structure (SMILES): CC1=NOc2c(N3CCC(C)CC3)c(F)cc3c(=O)c(C(=O)O)cn1c23
MIC (Klebsiella pneumoniae): 8 µg/mL (≈ 22.3 µM)

Continued, in another order:

EC50 (Escherichia coli [1]): 1.25 mg/kg | MIC (Escherichia coli [2]): 1.1 nM (≈ 0.364 ng/mL)
Structure (SMILES): O=C(O)c1cn(C2CC2)c2cc(N3CCNCC3)c(F)cc2c1=O [CIPROFLOXACIN]

MIC (Escherichia coli [4]): 0.11 µg/mL (≈ 0.199 µM)
Structure (SMILES): O=C1OCC(OCCN2CCN(c3cc4c(cc3F)c(=O)c(C(=O)O)cn4C3CC3)CC2)=C1c1ccccc1F
Ratio (Escherichia coli [3]): 50

solubility [5]: 22.5 mg/mL
Structure (SMILES): CO/N=C1\CCN(c2cc3c(cc2F)c(=O)c(C(=O)O)cn3C2CC2)CC1N.CS(=O)(=O)O (stereo unspecified)

EC50 (Escherichia coli [1]): 0.62 mg/kg
Structure (SMILES): COc1cc(Cc2cnc(/N=C3\C(=O)N(CN4CCN(c5cc6c(cc5F)c(=O)c(C(=O)O)cn6C5CC5)CC4)c4ccc(C)cc43)nc2N)cc(OC)c1OC
Ratio (Escherichia coli [6]): 5.5 | Ratio EC50 (Escherichia coli [7]): 2
